Results from patent US20190192413A1, “SKIN ANTI-AGING COMPOSITION CONTAINING DEHYDROGENATED ABIETIC ACID AND COMPOUND K” (AMOREPACIFIC CORPORATION, priority 2016, published 2019).

Key:
Assay type in all cases: cell-based
[1] = tested on: human normal fibroblasts; experiment: Skin cell proliferation (MTT assay); details: 10 ppm, 24 hours; for Cell proliferation effect (%): relative to control group (equation 1); for Absorbance (570 nm): MTT, serum-free DMEM, control group 0.355
Description: In order to examine the effect on skin cell proliferation that reduces wrinkles and enhances skin elasticity, human normal fibroblasts were seeded into a 96-well microplate at a density of 1×10^4 cells/well, and incubated in DMEM (Dulbecco's Modified Eagle's Medium) medium for 24 hours. After incubation, the medium was replaced with serum-free DMEM media containing 10 ppm of each of dehydroabietic acid (Comparative Example 1), compound K (Comparative Example 2), and a mixture of dehydroabietic acid and compound K (weight ratio of 1:7; Example 1), and then the cells were further incubated for 24 hours. Then, 10 μl of 3-(4,5-dimethylthiazol-2-yl)-2,5-diphenyl tetrazolium (MTT, 5 mg/ml) was added to each well, which was then allowed to stand for 4 hours, followed by removal of the medium. Then, 100 μl of dimethyl sulfoxide solution was added to each well, and the absorbance at 570 nm was measured with a microplate reader. Based on the experiment results, the cell proliferation effect was calculated using the following equation 1. [formula]

[2] = tested on: human normal fibroblasts; experiment: Promotion of collagen biosynthesis (procollagen type-I C-peptide, PICP, in supernatant); details: 10 ppm, 48 hours, control group 125
Description: In order to examine the effect on the promotion of collagen biosynthesis that reduces wrinkles and enhances skin elasticity, human normal fibroblasts were seeded into a 96-well microplate at a density of 1×10^4 cells/well, and incubated in DMEM (Dulbecco's Modified Eagle's Medium) medium for 24 hours. After incubation, the medium was replaced with serum-free DMEM media containing 10 ppm of each of dehydroabietic acid (Comparative Example 1), compound K (Comparative Example 2), and a mixture of dehydroabietic acid and compound K (weight ratio of 1:7; Example 1) and then the cells were further incubated for 48 hours. At 24 hours before completion of the incubation, 10 μM ascorbic acid as the positive control was added to each well to promote collagen synthesis. After completion, each well was washed, and the medium was replaced with serum-free DMEM medium, after which the cells were further incubated for 24 hours. After incubation, the supernatant of each well was collected, and the amount of procollagen type-I C-peptide (PICP) in the supernatant was measured using a kit (Takara, Kyoto, Japan) to determine the amount of newly synthesized collagen.

[3] = tested on: human normal fibroblasts; experiment: Inhibition of lipofuscin accumulation in skin cells (lipofuscin fluorescence); details: for Absorbance (570 nm): 10 ppm, after 10 passages of subculture, excitation 360 nm, emission 570 nm, control group 0.650; for inhibition at 10 ppm: Homo sapiens, Fibroblast, after 10 passages, relative to control group (equation 2), read-out: Lipofusin accumulation inhibition rate (%)
Description: In order to examine the effect on the inhibition of lipofuscin accumulation that prevents aging, human normal fibroblasts were seeded into a 96-well microplate at a density of 1×10^4 cells/well, and incubated in DMEM (Dulbecco's Modified Eagle's Medium) medium for 24 hours. After incubation, the medium was replaced with serum-free DMEM media containing 10 ppm of each of dehydroabietic acid (Comparative Example 1), compound K (Comparative Example 2), and a mixture of dehydroabietic acid and compound K (weight ratio of 1:7; Example 1). Then, the cells were subcultured in a fresh medium every 48 hours. After 10 passages of subculture, the fluorescence of the self-luminescent protein lipofuscin in the cells was measured using a microplate reader with the excitation wavelength of 360 nm and the emission wavelength of 570 nm. Based on the experiment results, the effect on inhibition of lipofuscin accumulation was calculated using the following equation 2. [formula]

| SMILES | Cell proliferation effect (%) [1] [%] | Absorbance (570 nm) [1] | Amount of collagen synthesized [2] [ng/2 × 10^4] | Absorbance (570 nm) [3] | inhibition at 10 ppm [3] [%] |
| --- | --- | --- | --- | --- | --- |
| CC(C)c1ccc2c(c1)CC[C@H]1[C@](C)(C(=O)O)CCC[C@]21C [Comparative Example 1, dehydroabietic acid] | 53.8 | 0.546 | 174 | 0.465 | 28.5 |
| O=C1O[C@H]([C@@H](O)CO)C(O)=C1O [Ascorbic acid, ascorbic acid] |  |  | 186 |  |  |
| CC(C)=CCC[C@](C)(O[C@@H]1O[C@H](CO)[C@@H](O)[C@H](O)[C@H]1O)[C@H]1CC[C@]2(C)[C@@H]1[C@H](O)C[C@@H]1[C@@]3(C)CC[C@H](O)C(C)(C)[C@@H]3CC[C@]12C [Comparative Example 2, compound K] | 46.5 | 0.520 | 162 | 0.448 | 31.1 |
